Results from patent US20260198493A1, “HYDRAZIDE COMPOUND AND AGRICULTURAL/HORTICULTURAL FUNGICIDE” (Nippon Soda Co., Ltd., priority 2022, published 2026).

Columns and labels:
Glomerella cingulata = assay: Fungicidal effect test against fungi causing grape ripe rot disease; details: Colletotrichum gloeosporioides, 72 h, read-out: growth inhibition ratio
Colletotrichum acutatum = assay: Fungicidal effect test against fungi causing apple anthracnose; details: 96 h, read-out: growth inhibition ratio
Botrytis cinerea [1] = type: cell-based; details: 120 h, 25 ppm by volume, Vogel medium, 20° C., five days, dark, read-out: growth inhibition ratio
Botrytis cinerea [2] = assay: Control test of cucumber gray mold (sprayed young cucumber seedlings); type: in vivo; details: 96 h, 125 ppm by mass spray, four days after inoculation
Method: Then, the drug liquid was sprayed onto young cucumber seedlings cultivated in a nursery pot (variety “Jihai”-based, cotyledon stage), and then air-dried. […] They were left still in a moist room at 20° C. Four days after inoculation, leaves of the young cucumber seedlings were visually observed, and the control value was calculated from the lesion area ratio in accordance with the following equation. [formula]

SMILES | inhibition of growth at 25 ppm (Glomerella cingulata) | inhibition of growth at 25 ppm (Colletotrichum acutatum) | inhibition of growth at 25 ppm (Botrytis cinerea [1]) | pest or weed control at 125 ppm (Botrytis cinerea [2])
Cc1ccc(CN(C)NC(=O)c2cc(C)nnc2Oc2cccc(C3CC3)c2F)c(C)c1 [b-2] | ≥ 75% | ≥ 75% | ≥ 75% | –
Cc1ccc(CN(NC(=O)c2cc(C)nnc2Oc2cccc(C3CC3)c2F)C(=O)C(F)(F)F)c(C)c1 [b-4] | ≥ 75% | ≥ 75% | ≥ 75% | –
CC(=O)N(Cc1ccc(C)cc1C)NC(=O)c1c(Oc2cccc(C3CC3)c2F)nnc(Cl)c1C [b-10] | ≥ 75% | ≥ 75% | ≥ 75% | ≥ 75%
CC(=O)N(Cc1ccc(C)cc1C)NC(=O)c1cc(Cl)nnc1Oc1cccc(C(F)(F)F)c1 [b-11] | ≥ 75% | ≥ 75% | ≥ 75% | –
Cc1cc(C(=O)NN(C=O)Cc2ccc(Cl)cc2Cl)c(Oc2cccc(C3CC3)c2F)nn1 [b-12] | ≥ 75% | ≥ 75% | ≥ 75% | –
COC(=O)N(Cc1ccc(C)cc1C)NC(=O)c1cc(C)nnc1Oc1cccc(C2CC2)c1F [b-17] | ≥ 75% | ≥ 75% | ≥ 75% | –
Cc1ccc(CN(NC(=O)c2cc(C)nnc2Oc2cccc(C3CC3)c2F)C(=O)C(C)(C)C)c(C)c1 [b-19] | – | ≥ 75% | – | –
Cc1ccc(CN(NC(=O)c2cc(C)nnc2Oc2cccc(C3CC3)c2F)C(=O)c2ccccc2)c(C)c1 [b-24] | ≥ 75% | ≥ 75% | ≥ 75% | –
Cc1ccc(CN(NC(=O)c2cc(C)nnc2Oc2cccc(C3CC3)c2F)C(=O)c2cnn(C)c2)c(C)c1 [b-39] | ≥ 75% | ≥ 75% | ≥ 75% | –
COC(=O)N(Cc1ccc(O)cc1C)NC(=O)c1cc(C)nnc1Oc1cccc(C2CC2)c1F [b-41] | ≥ 75% | ≥ 75% | – | –
Cc1ccc(CN(NC(=O)c2cc(C)nnc2Oc2cccc(C3CC3)c2F)C(=O)N(C)C)c(C)c1 [b-47] | ≥ 75% | ≥ 75% | – | –
Cc1ccc(CN(NC(=O)c2cc(C)ncc2Oc2cccc(C3CC3)c2F)C(=O)N(C)C)c(C)c1 [b-48] | ≥ 75% | ≥ 75% | ≥ 75% | –
Cc1ccc(CN(NC(=O)c2nc(C)ncc2Oc2cccc(C3CC3)c2F)C(=O)N(C)C)c(C)c1 [b-49] | ≥ 75% | ≥ 75% | – | –
COC(=O)N(Cc1ccc(C)cc1C)NC(=O)c1cc(C)nnc1Oc1ccc(C2CC2)cc1 [b-54] | ≥ 75% | ≥ 75% | ≥ 75% | –
Cc1ccc(CN(NC(=O)c2cc(C)nnc2Oc2cccc(C3CC3)c2F)C(=O)C(=O)N(C)C)c(C)c1 [b-56] | ≥ 75% | ≥ 75% | – | –
COC(=O)N(Cc1ccc(C)cc1C)NC(=O)c1cc(C)nnc1Oc1ccc2ccccc2c1 [b-61] | ≥ 75% | ≥ 75% | ≥ 75% | –
COC(=O)N(Cc1ccc(C)cc1C)NC(=NO)c1cc(C)nnc1Oc1cccc(C2CC2)c1F [b-63] | ≥ 75% | ≥ 75% | ≥ 75% | –
COc1ccc(CN(NC(=O)c2cc(C)nnc2Oc2cccc(C3CC3)c2F)c2cccc(C)c2)cc1 [b-73] | ≥ 75% | – | – | –
COC(=O)N(Cc1ccc(C)cc1C)NC(=O)c1cc(C)nnc1Sc1cccc(C(F)(F)F)c1 [b-78, Methyl 1-(2,4-dimethylbenzyl)-2-(6-methyl-3-((3-(trifluoromethyl)phenyl)thio)pyridazine-4-carbonyl)hydrazine-1-carboxylate] | ≥ 75% | ≥ 75% | ≥ 75% | –
COC(=O)C(=O)N(Cc1ccc(C)cc1C)NC(=O)c1cc(C)nnc1Oc1cccc(C2CC2)c1F [b-82] | ≥ 75% | ≥ 75% | ≥ 75% | –
COC(=O)N(CCCc1ccc(C)cc1)NC(=O)c1cc(C)nnc1Oc1cccc(C2CC2)c1F [b-89] | ≥ 75% | ≥ 75% | ≥ 75% | –
COC(=O)N(Cc1ccc(C)cc1C)NC(=O)c1cc(C)nnc1Oc1ccc2cccnc2c1 [b-97] | ≥ 75% | – | – | –
COC(=O)N(Cc1ccc(C)cc1C)NC(=O)c1cc(C)nnc1Oc1ccc(Br)cc1F [b-98] | – | – | ≥ 75% | –

SMILES | inhibition of growth at 25 ppm (Glomerella cingulata) | inhibition of growth at 25 ppm (Colletotrichum acutatum) | inhibition of growth at 25 ppm (Botrytis cinerea [1]) | pest or weed control at 125 ppm (Botrytis cinerea [2])
COC(=O)N(Cc1ccc(C)cc1C)NC(=O)c1cc(C)nnc1Oc1ccc(Cl)cc1F [b-99] | – | – | ≥ 75% | –
COC(=O)N(Cc1sc(Cl)nc1Cl)NC(=O)c1cc(C)nnc1Oc1cccc(C2CC2)c1F [b-120] | ≥ 75% | ≥ 75% | ≥ 75% | –
COC(=O)N(Cc1ccc(C)cc1C)NC(=O)c1nc(C)nnc1Oc1cccc(Br)c1 [b-129] | ≥ 75% | ≥ 75% | ≥ 75% | –
COC(=O)N(Cc1ccc(C)cc1C)NC(=O)c1cc(C)nnc1Oc1cccc(C(C)=O)c1 [b-131] | ≥ 75% | ≥ 75% | – | –
COC(=O)N(Cc1ccc(C)cc1C)NC(=O)c1cc(C)nnc1Oc1cccc(C(C)C)c1 [b-132] | ≥ 75% | ≥ 75% | – | –
COC(=O)N(Cc1ccc(C)cc1C)NC(=O)c1cc(C)nnc1Oc1cccc(OC(F)(F)F)c1 [b-133] | ≥ 75% | ≥ 75% | ≥ 75% | –
COC(=O)N(Cc1ccc(C)cc1C)NC(=O)c1cc(C)nnc1Oc1cccc(SC)c1 [b-136] | ≥ 75% | ≥ 75% | ≥ 75% | –
COC(=O)N(Cc1ccc(C)cc1C)NC(=O)c1cc(C)nnc1Oc1cccc(N(C)C)c1 [b-137] | ≥ 75% | ≥ 75% | – | –
COC(=O)N(Cc1ccc(C)cc1C)NC(=O)c1cnncc1Oc1cccc(C2CC2)c1F [b-142, Methyl 2-(5-(3-cyclopropyl-2-fluorophenoxy)pyridazine-4-carbonyl)-1-(2,4-dimethylbenzyl)hydrazine-1-carboxylate] | ≥ 75% | ≥ 75% | ≥ 75% | –
COC(=O)N(Cc1cnc2ccccc2c1)NC(=O)c1cc(C)nnc1Oc1cccc(C2CC2)c1F [b-161] | ≥ 75% | ≥ 75% | – | –
CSC(=O)N(Cc1ccc(C)cc1C)NC(=O)c1cc(C)nnc1Oc1cccc(C2CC2)c1F [b-166, S-methyl 2-(3-(3-cyclopropyl-2-fluorophenoxy)-6-methylpyridazine-4-carbonyl)-1-(2,4-dimethylbenzyl)hydrazine-1-carbothioate] | ≥ 75% | ≥ 75% | ≥ 75% | –
COC(=O)N(NC(=O)c1cc(C)nnc1Oc1cccc(C2CC2)c1F)C1(c2ccc(Br)cc2)CC1 [b-179] | ≥ 75% | ≥ 75% | ≥ 75% | –
COC(=O)N(Cc1ccc(C)cc1C)NC(=O)c1cc(-c2ccc(F)cc2)ncc1Oc1cccc(C2CC2)c1F [b-185] | ≥ 75% | ≥ 75% | ≥ 75% | –
COC(=O)N(Cc1ccc(C)cc1C)NC(=O)c1cc(S(C)(=O)=O)ncc1Oc1cccc(C2CC2)c1F [b-193] | ≥ 75% | ≥ 75% | ≥ 75% | –
COC(=O)N(Cc1ccc(C)cc1C)N(C)C(=O)c1cc(C)nnc1Oc1cccc(C2CC2)c1F [b-195] | ≥ 75% | ≥ 75% | ≥ 75% | –
Cc1cc(C(=O)NN2CCCc3ccccc32)c(Oc2cccc(C3CC3)c2F)nn1 [b-198] | ≥ 75% | – | – | –
COC(=O)N(Cc1ccc(C)cc1C)NC(=O)c1c(Oc2cccc(Cl)c2F)cncc1Oc1cccc(Cl)c1F [b-203] | ≥ 75% | ≥ 75% | – | –
COC(=O)N(Cc1ccc(C)cc1C)NC(=O)c1cc2cncn2nc1Oc1cccc(C2CC2)c1 [b-210, Methyl 2-(2-(3-cyclopropylphenoxy)imidazo[1,5-b]pyridazine-3-carbonyl)-1-(2,4-dimethylbenzyl)hydrazine-1-carboxylate] | ≥ 75% | ≥ 75% | – | –
COC(=O)N(Cc1ccc(C)cc1C)NC(=O)c1c(C#N)cncc1Oc1cccc(C2CC2)c1F [b-216] | ≥ 75% | ≥ 75% | – | –
COC(=O)N(Cc1ccc(C)cc1C)NC(=O)c1cc(NC(=O)OC(C)(C)C)nnc1Oc1cccc(Cl)c1F [b-218] | – | – | ≥ 75% | –
COC(=O)N(Cc1ccc(C)cc1C)NC(=O)c1c(Oc2cccc(C3CC3)c2F)cncc1C(C)=O [b-221] | ≥ 75% | ≥ 75% | ≥ 75% | –
COC(=O)N(NC(=O)c1cc(C)nnc1Oc1cccc(C2CC2)c1F)c1ccc(C)s1 [b-222] | ≥ 75% | – | – | –
COC(=O)N(Cc1ccc(OC)cc1C)NC(=O)c1c(Oc2cccc(C3CC3)c2)cnn(C(C)C)c1=O [b-225] | ≥ 75% | ≥ 75% | ≥ 75% | –
